Here are results for 5 molecules from patent US7488592B2, “Human protein acyl transferases and methods of uses therefor” (Washington University, priority 2003, dated 2009).

Assay [1] deals with T1, yeast Erf2p/Erf4p (Saccharomyces cerevisiae, UniProt Q06551).
T1 construct: made in house; host or cells: S. cerevisiae RJY543 (galactose-induced)
T1 sequence (Q06551 1-359): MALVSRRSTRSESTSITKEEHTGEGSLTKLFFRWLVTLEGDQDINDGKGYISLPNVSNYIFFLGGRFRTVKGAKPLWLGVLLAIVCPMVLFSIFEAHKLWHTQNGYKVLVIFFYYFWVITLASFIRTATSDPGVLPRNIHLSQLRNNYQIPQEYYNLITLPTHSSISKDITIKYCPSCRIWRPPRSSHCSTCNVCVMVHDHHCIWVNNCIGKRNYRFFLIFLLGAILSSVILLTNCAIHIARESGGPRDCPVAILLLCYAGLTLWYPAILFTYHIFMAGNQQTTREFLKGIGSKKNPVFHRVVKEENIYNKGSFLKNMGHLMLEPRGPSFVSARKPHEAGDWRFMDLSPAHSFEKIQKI
T1 sequence (P41912 1-237 partner): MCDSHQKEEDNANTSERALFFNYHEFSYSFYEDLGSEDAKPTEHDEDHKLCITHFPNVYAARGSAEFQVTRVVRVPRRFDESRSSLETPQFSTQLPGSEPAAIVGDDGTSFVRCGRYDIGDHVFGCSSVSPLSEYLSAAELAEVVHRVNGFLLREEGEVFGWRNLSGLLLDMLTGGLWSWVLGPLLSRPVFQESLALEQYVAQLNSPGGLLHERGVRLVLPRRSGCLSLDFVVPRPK
The assay can be described thus: Ras PAT assay: [3H]palmitate incorporation into GST-Ras(HV)CCaaX by partially purified Erf2p/Erf4p, with competitor or inhibitor. Format: biochemical, S. cerevisiae. Particulars: 0.5 μM [3H]palmitoyl-CoA; for effectiveness as competitor of the radioactive Ras PAT reaction (in words): unlabeled acyl-CoA at concentrations similar to 8 μM, FIG. 17. Here is the method: FIG. 17—Concentration dependent inhibition of yeast PAT activity by acyl-CoAs. Partially purified yeast Erf2p/Erf4p was assayed for PAT activity in the presence of 0.5 μM [^3H]palmitoyl-CoA and the indicated concentrations of unlabeled acyl-CoA substrates as indicated: decanoyl-CoA (C10:0), lauroyl-CoA (C12:0), myristoyl-CoA (C14:0), palmitoyl-CoA (C16:0), palmitoleoyl-CoA (C16:1), stearoyl-CoA (C18:0), and oleoyl-CoA (C18:1). Radiolabeled palmitoylated GST-Ras(HV)CCaaX was excised from the gel and quantitated. Results are expressed as a percent of Ras PAT activity in the absence of competitor (100%).
FIG. 18—Inhibition of Erf2p/Erf4p-dependent PAT by 2-bromopalmitate. Partially purified Erf2p/Erf4p was assayed for palmitoyltransferase activity using GST-Ras(HV)CCaaX (1.33 μM) and 0.5 μM [^3H]palmitoyl-CoA as substrate. Radiolabeled palmitoylated GST-Ras(HV)CCaaX was excised from the gel and quantitated. Results are expressed as a percent of Ras PAT activity in the absence of competitor (100%).
Ras PAT Assays—Ras PAT activity was assayed by measuring the incorporation of tritiated palmitate. [^3H]palmitoyl-CoA substrate was synthesized from [^3H]palmitic acid (NEN) and Coenzyme A using acyl-CoA synthetase (Sigma) and purified as described (Taylor et al., 1990). The PAT assay (25 μl of final volume) was performed by adding 1.5 μg of GST-Ras(HV)CCaaX(2 μM) to GST-Erf4p/FLAG-Erf2p GSH beads in 1 mM DTT, 100 mM MES (pH 6.3). The reaction was started by the addition of 1 μl of [^3H]palmitoyl-CoA (0.5 μM), incubated for 15 min at 30° C., and terminated by the addition of 5 μl of a 5× solution of SDS gel loading buffer without DTT. Heat inactivation was performed by boiling (100° C., 15 min) the GSH beads containing GST-Erf4p/FLAG-Erf2p prior to the addition of substrates. The assays were analyzed by SDS-PAGE using Bis-Tris gels, pH 6.4 (Nu-PAGE®), and subjected to fluorography as described (Mitchell et al., 1994). Quantitation of Ras PAT activity was done by excising Ras protein bands from the gel, solubilizing them in Soluene S-350 (Packard), and counting in a scintillation counter.
The lipid substrate specificity of Ras PAT was investigated by adding increasing amounts of unlabeled acyl-CoA competitors to the radioactive Ras PAT reaction. […] Decanoyl (C10:0) was ineffective at similar concentrations. […] Both saturated and unsaturated fatty acyl-CoAs were effective inhibitors. Little difference was observed between C16:0 and C16:1, or C18:0 and C18:1. The lack of complete acyl-CoA substrate specificity of Ras PAT is consistent with the finding that thioester-linked fatty acids on protein are heterogeneous in vivo (Linder, 2001).
Inhibition of autopalmitoylation or substrate palmitoylation can come about by substrates or substrate analogs. […] The lipid substrate specificity of yeast Erf2p/Erf4p for Ras palmitoylation was investigated by adding increasing amounts of unlabeled acyl-CoA competitors to the radioactive Ras PAT reaction. […] Decanoyl (C10:0) was ineffective at similar concentrations. […] Both saturated and unsaturated fatty acyl-CoAs were effective inhibitors. Little difference was observed between C16:0 and C16:1, or C18:0 and C18:1. The lack of complete acyl-CoA substrate specificity of Ras PAT is consistent with the finding that thioester-linked fatty acids on protein are heterogeneous in vivo (Linder, 2001). […]

Assay [2] concerns the target T2, Erf2p/Erf4p complex (Saccharomyces cerevisiae, UniProt Q06551).
T2 construct: FLAG (N); made in house
T2 sequence (Q06551 1-359): T1 sequence (Q06551 1-359)
T2 sequence (P41912 1-237 partner): T1 sequence (P41912 1-237 partner)
Briefly: Autopalmitoylation of Erf2p, microtiter plate assay with [3H]palmitoyl CoA. Format: biochemical, yeast. Particulars: 2-bromopalmitate 16, 63 or 250 μM; 30 minutes at 25 °C; no substrate. On the procedure:
FIG. 19—Inhibition of autopalmitoylation of Erf2p. Partially purified […]/GST-Erf4p (2.7 nM) was bound to the well of a GSH coated microtiter plate. The complex was incubated in reaction buffer (122 mM NaCl, 183 mM Tris HCl pH 7.8, 0.6 mM DTT and 0.035% Triton X-100) (registered trademark of Union Carbide Chemicals and Plastics Co., Inc. for a compound of formula C14H22O(C2H4O)n (CAS No. 9002-93-1); hereinafter referred to as “Triton X-100”))in the presence or absence of 2-bromopalmitate (16 .μ.M, 63 .μ.M or 250 .μ.M). The autopalmitoylation reaction was initiated by addition of 5 .μ.l of 3 .μ.M [^ 3H]palmitoyl CoA and the reaction was incubated for 30 minutes at 25 ° C. The wells were washed (3 × 200 .μ.l 20 mM phosphate pH 6 with 1% Triton X-100) and 3 × 200 .μ.l 25% ipa in water. Finally, wash with 2 × 200 .μ.l 20 mM phosphate pH 6 with 150 mM NaCl. The wells were counted in scintillation fluid.
The inventors tested whether 2-BP inhibits autopalmitoylation of yeast Erf2p.

Assay [3] concerns PAT. Particulars: reported by Webb et al., 2000; cited from earlier work.

Consider `CCCCCCCCCCCCCCCC(=O)SCCNC(=O)CCNC(=O)[C@H](O)C(C)(C)COP(=O)(O)OP(=O)(O)OC[C@H]1O[C@@H](n2cnc3c(N)ncnc32)[C@H](O)[C@@H]1OP(=O)(O)O` [palmitoyl-CoA], for which the “inhibition of Ras PAT activity by unlabeled acyl-CoA competitor” value in assay [1] (8 μM competitor, a 16-fold excess) was determined as 90%.

Regarding `CCCCCCCCCCCCCCC(Br)C(=O)O` (stereo not shown) [2-BP, 2-Bromopalmitate], in assay [1] (increasing concentrations of 2-BP, GST-Ras(HV)CCaaX 1.33 μM), the “inhibition of Erf2/Erf4-dependent PAT activity using yeast Ras2 as a substrate (in words)” value is recorded as “inhibits”. The “inhibition of autopalmitoylation of Erf2p (in words)” value in assay [2] was “inhibited in a dose-dependent manner”. Moreover, the “inhibition of PAT activity in vivo (in words)” value in assay [3] was “inhibit PAT activity in vivo”.

For `CCCCCCCCCC(=O)SCCNC(=O)CCNC(=O)[C@H](O)C(C)(C)COP(=O)(O)OP(=O)(O)OC[C@H]1O[C@@H](n2cnc3c(N)ncnc32)[C@H](O)[C@@H]1OP(=O)(O)O` [Decanoyl, decanoyl-CoA], in assay [1], the “effectiveness as competitor of the radioactive Ras PAT reaction (in words)” value (from here on “effectiveness as competitor”) is “ineffective”.

As to `CCCCCCCCCCCCCC(=O)SCCNC(=O)CCNC(=O)[C@H](O)C(C)(C)COP(=O)(O)OP(=O)(O)OC[C@H]1O[C@@H](n2cnc3c(N)ncnc32)[C@H](O)[C@@H]1OP(=O)(O)O` [myristoyl, myristoyl-CoA], in assay [1], the “effectiveness as competitor” value is given as “more effective”.

With `CCCCCCCCCCCC(=O)SCCNC(=O)CCNC(=O)[C@H](O)C(C)(C)COP(=O)(O)OP(=O)(O)OC[C@H]1O[C@@H](n2cnc3c(N)ncnc32)[C@H](O)[C@@H]1OP(=O)(O)O` [Lauryl, lauroyl-CoA], the “effectiveness as competitor” value in assay [1] was “more effective”.
